# Source: PubChem BioAssay (NCI)
#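 Step 1: Grow cells in 96-well plates. Step 2: Expose to compound for 48 hours at 5 concentrations. Step 3: Interpolate endpoints linearly; if unreached, use highest concentration. GI50 is the concentration that inhibits growth by half. TGI: total growth inhibition.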
# What was measured:
# Test in all cases: NCI tumour cell line growth inhibition, 48 h
# [1] = system: SNB-75 CNS
# [2] = system: HT29 colon
# [3] = system: UACC-257 melanoma
# [4] = system: ACHN renal
# [5] = system: DMS 114 small cell lung
# [6] = system: OVCAR-4 ovarian
# [7] = system: KM12 colon
# [8] = system: HOP-62 NSCLC
# [9] = system: HCC-2998 colon
# [10] = system: SR leukemia
Structure (SMILES),TGI [1],TGI [2],TGI [3],TGI [4],TGI [5],TGI [6],TGI [7],TGI [8],TGI [9],TGI [10],GI50 [1],GI50 [2],GI50 [3],GI50 [4],GI50 [5],GI50 [9],GI50 [6],GI50 [7],GI50 [8],GI50 [10]
COc1cccc2c1C1=CC(=O)CCC1C(C)(C)O2 (stereo unspecified),> 100 µM,> 100 µM,> 100 µM,> 100 µM,61.5 µM,> 100 µM,> 100 µM,> 100 µM,–,–,–,–,–,–,–,–,–,–,–,–
CN(C)CCNC(=O)c1cc([N+](=O)[O-])cc2ccc(-c3ccccc3)nc12,23.8 µM,40 µM,20.8 µM,28.5 µM,28.6 µM,13 µM,49.6 µM,38.1 µM,20.3 µM,–,–,–,–,–,–,–,–,–,–,–
Cn1cc(NC(=O)c2cc(NC(=O)CCCCCC(=O)Nc3cc(C(=O)Nc4cc(C(=O)NCCC(=N)N)n(C)c4)n(C)c3)cn2C)cc1C(=O)NCCC(=N)N,> 100 µM,> 100 µM,> 100 µM,> 100 µM,> 100 µM,> 100 µM,> 100 µM,–,> 100 µM,–,–,–,–,–,–,–,–,–,–,–
CCOC(=O)C(=O)Nc1c(C)cccc1CC,–,> 100 µM,> 100 µM,> 100 µM,> 100 µM,> 100 µM,> 100 µM,> 100 µM,> 100 µM,> 100 µM,–,–,–,–,–,–,–,–,–,–
O=C(c1ccco1)N(C(=S)N1CCN(c2ccccc2)CC1)c1ccccc1,> 100 µM,> 100 µM,> 100 µM,> 100 µM,> 100 µM,> 100 µM,> 100 µM,> 100 µM,–,> 100 µM,–,–,–,–,–,–,–,–,–,–
Cn1nnnc1[N-]Cc1ccccc1.[Au+].c1ccc([PH+](c2ccccc2)c2ccccc2)cc1,20.5 µM,13.3 µM,7.78 µM,10.6 µM,4.83 µM,5.42 µM,38 µM,30 µM,21.8 µM,–,7.92 µM,5.02 µM,2.01 µM,4.29 µM,1.53 µM,8.55 µM,1.99 µM,11.1 µM,16 µM,–
CCCc1ccc(N=Cc2cc(OC)c(OC)c(OC)c2)cc1,> 100 µM,> 100 µM,> 100 µM,> 100 µM,> 60.6 µM,> 100 µM,> 100 µM,> 100 µM,–,> 100 µM,–,–,–,–,–,–,–,–,–,–
COc1ccc(/C=[N+](\[O-])[C@H](COCc2ccccc2)c2ccccc2)cc1,> 100 µM,> 100 µM,> 100 µM,> 100 µM,> 100 µM,–,> 100 µM,> 100 µM,> 100 µM,–,–,–,–,–,–,–,–,–,–,–
CCOC(=O)c1c2ccc(/C=C/C(=O)OC)ccc-2c(C(=O)OCC)c1N,> 100 µM,> 100 µM,> 100 µM,> 100 µM,> 100 µM,> 100 µM,> 100 µM,–,> 100 µM,–,–,–,–,–,–,–,–,–,–,–
CCC(=O)N1C/C(=C/c2ccc(OC)cc2)C(=O)/C(=C/c2ccc(OC)cc2)C1,> 100 µM,4.13 µM,5.88 µM,3.43 µM,–,> 100 µM,2.85 µM,6.45 µM,3.42 µM,> 100 µM,5.91 µM,1.18 µM,2.21 µM,1.8 µM,–,1.93 µM,3.37 µM,1.38 µM,2.79 µM,0.382 µM
CCCN(CCCCC(NC(C)=O)C(=O)NCc1ccccc1)C(=O)NC (stereo unspecified),> 100 µM,> 100 µM,> 100 µM,> 100 µM,> 100 µM,> 100 µM,> 100 µM,> 100 µM,> 100 µM,–,–,–,–,–,–,–,–,–,–,–
CCCCCCCCCCCCC(SCCNC(=O)CCNC(=O)C(O)C(C)(C)COP(=O)(O)OP(=O)(O)OCC1OC(n2cnc3c(N)ncnc32)C(O)C1OP(=O)(O)O)C(=O)NCC(N)=O (stereo unspecified),9.04 µM,> 100 µM,> 100 µM,> 100 µM,> 100 µM,> 100 µM,> 100 µM,> 100 µM,> 100 µM,–,–,–,–,–,–,–,–,–,–,–
CCCCCCCCCCCC(=O)C1=C(O)C(O)CCC1=O (stereo unspecified),67.7 µM,30.1 µM,37.2 µM,56.9 µM,50.5 µM,90.8 µM,43.2 µM,40.4 µM,52.9 µM,–,–,–,–,–,–,–,–,–,–,–
Cc1ccc(S(=O)(=O)ON/N=C2/C3OC3[C@@H]3CCCC[C@H]23)cc1 (stereo partly specified),> 100 µM,> 100 µM,32.5 µM,> 100 µM,–,> 100 µM,> 100 µM,> 100 µM,> 100 µM,> 100 µM,–,–,–,–,–,–,–,–,–,–
CC1(C)C(=O)/C(=C\c2ccco2)C[C@]2(C)[C@H]3CC=C4[C@@H]5C[C@](C)(C(=O)O)CC[C@]5(C)CC[C@@]4(C)[C@]3(C)CC[C@@H]12,> 100 µM,28.6 µM,38.9 µM,21.1 µM,–,27 µM,19.5 µM,28.5 µM,24.3 µM,> 100 µM,24.6 µM,11.7 µM,12.5 µM,6.9 µM,–,11 µM,12.8 µM,5.88 µM,10.1 µM,9.85 µM
O=C(Nc1ccc(Br)cc1)c1cc(Br)cc(Br)c1O,7.11 µM,22.7 µM,5.41 µM,6.66 µM,–,> 100 µM,8.09 µM,6.5 µM,10.1 µM,> 100 µM,2.16 µM,4.02 µM,2.08 µM,2.31 µM,–,3.35 µM,3.33 µM,2.59 µM,2.45 µM,3.87 µM
C=CCN(N=O)C(=O)N(CCC)CCCC(NC(C)=O)C(=O)NCc1ccccc1 (stereo unspecified),> 100 µM,> 100 µM,> 100 µM,> 100 µM,> 100 µM,> 100 µM,> 100 µM,> 100 µM,–,–,–,–,–,–,–,–,–,–,–,–
CC1(C)OC2C(=O)OC(COCc3ccccc3)C2O1 (stereo unspecified),> 100 µM,> 100 µM,> 100 µM,> 100 µM,–,> 100 µM,> 100 µM,> 100 µM,> 100 µM,> 100 µM,–,–,–,–,–,–,–,–,–,–
O=C(O)c1[nH]c(C(=O)O)c(CC(F)(F)C(F)(F)C(F)(F)F)c1CC(F)(F)C(F)(F)C(F)(F)F,> 100 µM,> 100 µM,> 100 µM,> 100 µM,> 100 µM,> 100 µM,> 100 µM,> 100 µM,> 100 µM,–,–,–,–,–,–,–,–,–,–,–
Cn1c(=O)c2c(nc3n2CCC(=O)N3)n(C)c1=O,–,> 100 µM,> 100 µM,> 100 µM,> 100 µM,> 100 µM,> 100 µM,> 100 µM,–,> 100 µM,–,–,–,–,–,–,–,–,–,–
Cc1ccc(-n2c(C)nc3c2C(=O)c2ccccc2C3=O)cc1,> 100 µM,> 100 µM,57 µM,> 100 µM,–,> 100 µM,> 100 µM,> 100 µM,> 100 µM,> 100 µM,–,–,–,–,–,–,–,–,–,–
Cc1ccc2c(c1)sc(-c1ccc(N(C)C)cc1)[n+]2C,34.8 µM,> 37.9 µM,19.9 µM,> 100 µM,–,> 100 µM,14.6 µM,> 41.4 µM,19 µM,19.4 µM,4.55 µM,0.854 µM,0.657 µM,5.89 µM,–,1.51 µM,1.58 µM,0.397 µM,3.66 µM,0.125 µM
CCOC(=O)/C=C/c1ccc(C(=O)OCC)[nH]1,35.9 µM,14.2 µM,> 100 µM,> 100 µM,–,> 100 µM,92.6 µM,> 100 µM,77.3 µM,> 100 µM,2.82 µM,2.82 µM,11.3 µM,6.88 µM,–,12.3 µM,20.3 µM,0.601 µM,7.14 µM,0.676 µM
c1c[nH]c(Cc2ncc(Cc3cnc[nH]3)[nH]2)n1,> 100 µM,> 100 µM,–,51.5 µM,58.6 µM,> 100 µM,> 100 µM,98.6 µM,> 100 µM,–,–,–,–,–,–,–,–,–,–,–
COC1C(=O)CCC2(CO2)C1(O)C1(C)OC1CCC(C)C (stereo unspecified),> 100 µM,> 100 µM,> 100 µM,> 100 µM,–,> 100 µM,> 100 µM,> 100 µM,> 100 µM,> 100 µM,–,–,–,–,–,–,–,–,–,–
C=C(CNCCO)[C@@H]1CC[C@]2(CO)CC[C@]3(C)[C@H](CC[C@@H]4[C@@]5(C)CCC(NCCc6ccc(O)cc6)C(C)(C)[C@@H]5CC[C@]43C)[C@@H]12 (stereo partly specified),2.63 µM,0.763 µM,3.08 µM,3.08 µM,–,3 µM,2.92 µM,2.99 µM,1.43 µM,0.802 µM,1.31 µM,0.263 µM,1.7 µM,1.69 µM,–,0.355 µM,1.44 µM,1.39 µM,1.59 µM,0.25 µM
CCc1cccc(C)c1NC(=O)CC1Sc2ccccc2NC1=O (stereo unspecified),75 µM,–,57.7 µM,> 100 µM,> 100 µM,> 100 µM,> 100 µM,61.3 µM,81.2 µM,–,–,–,–,–,–,–,–,–,–,–
CCN(CC)C(=S)SSC1CCCCC1,48 µM,34.8 µM,65 µM,32 µM,–,28.4 µM,28.8 µM,77.9 µM,41.1 µM,4.36 µM,17.5 µM,15.3 µM,22.5 µM,16.6 µM,–,19.7 µM,15 µM,13 µM,26.8 µM,0.0656 µM
